Results as given in ChEMBL document CHEMBL4507283, “Data for DCP probe BI-1935” (2021).

Experiments:
[1] = molecular target: Voltage-dependent L-type calcium channel subunit alpha-1C (diltiazem site) (Rattus norvegicus, UniProt P22002); test: CA+/DILSI/RA Eurofins-Panlabs selectivity data (BI); settings: compound concentration 10 uM, read-out: % Ctrl
[2] = molecular target: Serine/threonine-protein kinase SIK3 (Homo sapiens) (UniProt Q9Y2K2); settings: Compound concentration 1000.0 nM
[3] = molecular target: Homeodomain-interacting protein kinase 2 (Homo sapiens) (UniProt Q9H2X6); settings: Compound concentration 1000.0 nM
[4] = molecular target: LIM domain kinase 2 (Homo sapiens) (UniProt P53671); settings: Compound concentration 1000.0 nM
[5] = molecular target: Histamine H3 receptor (Homo sapiens) (UniProt Q9Y5N1); settings: Compound concentration 10.0 uM
[6] = tested on: Phosphatidylinositol 4,5-bisphosphate 3-kinase catalytic subunit alpha isoform (Homo sapiens), P42336 [H1047L]; settings: Compound concentration 1000.0 nM
[7] = molecular target: Cyclin-dependent kinase 2 homolog (Plasmodium falciparum (isolate 3D7)) (UniProt P61075); settings: Compound concentration 1000.0 nM
Chain of Cyclin-dependent kinase 2 homolog (Plasmodium falciparum (isolate 3D7)) (P61075 whole entry): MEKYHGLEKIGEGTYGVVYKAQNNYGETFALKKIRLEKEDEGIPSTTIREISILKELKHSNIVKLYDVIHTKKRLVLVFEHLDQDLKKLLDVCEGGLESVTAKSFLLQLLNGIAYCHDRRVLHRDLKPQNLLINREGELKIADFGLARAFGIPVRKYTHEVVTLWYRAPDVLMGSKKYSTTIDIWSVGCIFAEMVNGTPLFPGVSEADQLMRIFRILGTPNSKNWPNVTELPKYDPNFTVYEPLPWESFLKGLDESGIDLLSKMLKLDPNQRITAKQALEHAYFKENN

[8] = molecular target: Serine/threonine-protein kinase PknB (Mycobacterium tuberculosis) (UniProt P9WI81); settings: Compound concentration 1000.0 nM
[9] = molecular target: Homeodomain-interacting protein kinase 3 (Homo sapiens) (UniProt Q9H422); settings: Compound concentration 1000.0 nM
[10] = tested on: Proto-oncogene tyrosine-protein kinase receptor Ret (Homo sapiens), P07949 [M918T]; settings: Compound concentration 1000.0 nM
[11] = molecular target: Serine/threonine-protein kinase tousled-like 2 (Homo sapiens) (UniProt Q86UE8); settings: Compound concentration 1000.0 nM
[12] = molecular target: cAMP-dependent protein kinase catalytic subunit beta (Homo sapiens) (UniProt P22694); settings: Compound concentration 1000.0 nM
[13] = molecular target: Serine/threonine-protein kinase SBK1 (Homo sapiens) (UniProt Q52WX2); settings: Compound concentration 1000.0 nM
[14] = molecular target: Casein kinase I isoform alpha (Homo sapiens) (UniProt P48729); settings: Compound concentration 1000.0 nM
[15] = molecular target: Tyrosine-protein kinase JAK1 (Homo sapiens) (UniProt P23458); settings: Compound concentration 1000.0 nM
[16] = molecular target: Death-associated protein kinase 2 (Homo sapiens) (UniProt Q9UIK4); settings: Compound concentration 1000.0 nM
Chain of Death-associated protein kinase 2 (Homo sapiens) (Q9UIK4 whole entry, looked up): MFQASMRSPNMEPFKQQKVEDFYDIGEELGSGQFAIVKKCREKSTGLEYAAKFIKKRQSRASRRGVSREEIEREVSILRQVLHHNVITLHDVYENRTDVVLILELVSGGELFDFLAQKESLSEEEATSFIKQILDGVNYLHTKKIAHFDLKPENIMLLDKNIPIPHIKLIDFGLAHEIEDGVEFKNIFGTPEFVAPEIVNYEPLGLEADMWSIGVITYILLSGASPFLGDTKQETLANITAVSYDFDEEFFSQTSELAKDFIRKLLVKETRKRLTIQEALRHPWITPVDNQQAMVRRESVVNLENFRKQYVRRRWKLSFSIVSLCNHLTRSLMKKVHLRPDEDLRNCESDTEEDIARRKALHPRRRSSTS

[17] = tested on: Mast/stem cell growth factor receptor Kit (Homo sapiens), P10721 [V559D]; settings: Compound concentration 1000.0 nM
[18] = molecular target: Nitric oxide synthase 3 (Bos taurus) (UniProt P29473); test: ENOS_MDS Eurofins-Panlabs selectivity data (BI); settings: Compound concentration 10.0 uM
Chain of Nitric oxide synthase 3 (Bos taurus) (P29473 whole entry): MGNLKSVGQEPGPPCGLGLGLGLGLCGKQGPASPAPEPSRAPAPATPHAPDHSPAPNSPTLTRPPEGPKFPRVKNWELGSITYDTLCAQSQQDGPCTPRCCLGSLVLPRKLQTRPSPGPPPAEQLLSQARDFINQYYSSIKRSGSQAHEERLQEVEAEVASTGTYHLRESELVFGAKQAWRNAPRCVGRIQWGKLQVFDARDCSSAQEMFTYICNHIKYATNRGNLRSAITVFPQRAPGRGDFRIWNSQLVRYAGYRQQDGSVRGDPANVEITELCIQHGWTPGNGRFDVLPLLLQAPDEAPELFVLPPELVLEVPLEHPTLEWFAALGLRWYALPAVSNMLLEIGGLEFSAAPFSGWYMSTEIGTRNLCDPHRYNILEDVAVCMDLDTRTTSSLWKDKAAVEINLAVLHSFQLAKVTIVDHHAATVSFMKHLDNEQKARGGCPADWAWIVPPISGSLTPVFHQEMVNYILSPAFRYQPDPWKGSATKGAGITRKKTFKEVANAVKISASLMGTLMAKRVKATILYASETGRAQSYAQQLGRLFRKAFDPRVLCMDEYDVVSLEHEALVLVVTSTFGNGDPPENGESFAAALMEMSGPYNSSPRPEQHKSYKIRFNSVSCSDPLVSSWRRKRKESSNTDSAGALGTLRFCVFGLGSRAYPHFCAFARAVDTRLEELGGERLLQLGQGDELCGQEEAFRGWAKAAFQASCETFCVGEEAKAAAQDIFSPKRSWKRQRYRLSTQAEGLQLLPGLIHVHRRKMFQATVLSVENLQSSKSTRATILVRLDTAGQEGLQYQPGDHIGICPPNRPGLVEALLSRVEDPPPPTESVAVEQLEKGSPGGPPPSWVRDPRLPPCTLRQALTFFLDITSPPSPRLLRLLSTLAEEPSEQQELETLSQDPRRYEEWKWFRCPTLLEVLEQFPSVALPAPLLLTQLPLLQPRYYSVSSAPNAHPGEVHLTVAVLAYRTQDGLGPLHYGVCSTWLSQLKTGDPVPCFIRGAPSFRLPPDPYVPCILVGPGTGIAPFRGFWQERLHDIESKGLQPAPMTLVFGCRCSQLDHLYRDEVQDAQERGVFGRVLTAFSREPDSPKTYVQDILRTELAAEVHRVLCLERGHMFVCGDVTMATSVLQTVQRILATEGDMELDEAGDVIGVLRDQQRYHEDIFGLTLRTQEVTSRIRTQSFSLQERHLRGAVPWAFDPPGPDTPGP

[19] = molecular target: Dual specificity protein kinase CLK3 (Homo sapiens) (UniProt P49761); settings: Compound concentration 1000.0 nM
[20] = molecular target: SRSF protein kinase 2 (Homo sapiens) (UniProt P78362); settings: Compound concentration 1000.0 nM
[21] = molecular target: Calcium/calmodulin-dependent protein kinase kinase 2 (Homo sapiens) (UniProt Q96RR4); settings: Compound concentration 1000.0 nM
[22] = molecular target: Serine/threonine-protein kinase Nek2 (Homo sapiens) (UniProt P51955); settings: Compound concentration 1000.0 nM
[23] = molecular target: Death-associated protein kinase 3 (Homo sapiens) (UniProt O43293); settings: Compound concentration 1000.0 nM
[24] = molecular target: Myosin-IIIb (Homo sapiens) (UniProt Q8WXR4); settings: Compound concentration 1000.0 nM
[25] = molecular target: Tyrosine-protein kinase receptor UFO (Homo sapiens) (UniProt P30530); settings: Compound concentration 1000.0 nM
Chain of Tyrosine-protein kinase receptor UFO (Homo sapiens) (P30530 whole entry): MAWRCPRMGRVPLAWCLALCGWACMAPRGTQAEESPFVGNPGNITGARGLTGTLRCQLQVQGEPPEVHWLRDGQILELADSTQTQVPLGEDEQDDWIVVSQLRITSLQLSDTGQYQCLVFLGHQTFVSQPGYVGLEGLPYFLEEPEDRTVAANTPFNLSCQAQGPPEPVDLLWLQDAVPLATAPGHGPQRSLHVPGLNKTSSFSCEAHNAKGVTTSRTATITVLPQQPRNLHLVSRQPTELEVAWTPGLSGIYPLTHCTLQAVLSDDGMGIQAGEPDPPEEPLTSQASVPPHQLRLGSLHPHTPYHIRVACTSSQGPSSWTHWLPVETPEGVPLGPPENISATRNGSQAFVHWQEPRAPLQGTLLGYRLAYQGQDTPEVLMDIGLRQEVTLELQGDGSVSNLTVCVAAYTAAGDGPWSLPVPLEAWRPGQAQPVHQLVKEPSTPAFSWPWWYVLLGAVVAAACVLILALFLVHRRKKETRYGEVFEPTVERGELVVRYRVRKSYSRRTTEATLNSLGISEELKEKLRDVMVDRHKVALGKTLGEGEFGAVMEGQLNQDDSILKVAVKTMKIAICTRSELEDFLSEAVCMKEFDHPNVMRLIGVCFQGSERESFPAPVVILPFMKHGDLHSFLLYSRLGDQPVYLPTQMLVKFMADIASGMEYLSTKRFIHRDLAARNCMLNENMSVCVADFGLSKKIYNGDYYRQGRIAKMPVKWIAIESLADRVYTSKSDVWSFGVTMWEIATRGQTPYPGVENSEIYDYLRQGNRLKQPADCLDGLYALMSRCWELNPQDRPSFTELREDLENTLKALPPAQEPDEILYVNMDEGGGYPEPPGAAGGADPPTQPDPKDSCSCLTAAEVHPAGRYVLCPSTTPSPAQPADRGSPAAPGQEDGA

[26] = molecular target: Serine/threonine-protein kinase Nek5 (Homo sapiens) (UniProt Q6P3R8); settings: Compound concentration 1000.0 nM
Chain of Serine/threonine-protein kinase Nek5 (Homo sapiens) (Q6P3R8 whole entry): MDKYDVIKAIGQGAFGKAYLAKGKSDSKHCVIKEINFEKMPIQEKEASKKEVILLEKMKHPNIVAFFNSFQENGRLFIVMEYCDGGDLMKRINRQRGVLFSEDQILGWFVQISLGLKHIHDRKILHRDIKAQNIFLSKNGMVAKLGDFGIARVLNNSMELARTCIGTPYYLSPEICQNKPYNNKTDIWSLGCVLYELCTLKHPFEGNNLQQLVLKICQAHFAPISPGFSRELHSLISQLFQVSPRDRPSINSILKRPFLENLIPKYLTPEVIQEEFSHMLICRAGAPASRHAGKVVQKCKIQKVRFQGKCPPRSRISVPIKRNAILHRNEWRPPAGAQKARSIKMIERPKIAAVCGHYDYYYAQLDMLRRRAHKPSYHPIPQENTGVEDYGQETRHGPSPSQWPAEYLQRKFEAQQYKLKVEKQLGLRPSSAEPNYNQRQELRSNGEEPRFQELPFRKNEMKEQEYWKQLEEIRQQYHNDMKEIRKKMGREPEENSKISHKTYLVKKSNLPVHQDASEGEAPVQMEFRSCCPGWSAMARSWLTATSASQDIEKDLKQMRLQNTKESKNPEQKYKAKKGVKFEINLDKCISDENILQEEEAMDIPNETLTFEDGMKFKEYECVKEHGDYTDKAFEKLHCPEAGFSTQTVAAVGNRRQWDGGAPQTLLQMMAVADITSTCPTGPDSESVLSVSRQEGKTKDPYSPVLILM

[27] = molecular target: Serine/threonine-protein kinase NIM1 (Homo sapiens) (UniProt Q8IY84); settings: Compound concentration 1000.0 nM
Chain of Serine/threonine-protein kinase NIM1 (Homo sapiens) (Q8IY84 whole entry): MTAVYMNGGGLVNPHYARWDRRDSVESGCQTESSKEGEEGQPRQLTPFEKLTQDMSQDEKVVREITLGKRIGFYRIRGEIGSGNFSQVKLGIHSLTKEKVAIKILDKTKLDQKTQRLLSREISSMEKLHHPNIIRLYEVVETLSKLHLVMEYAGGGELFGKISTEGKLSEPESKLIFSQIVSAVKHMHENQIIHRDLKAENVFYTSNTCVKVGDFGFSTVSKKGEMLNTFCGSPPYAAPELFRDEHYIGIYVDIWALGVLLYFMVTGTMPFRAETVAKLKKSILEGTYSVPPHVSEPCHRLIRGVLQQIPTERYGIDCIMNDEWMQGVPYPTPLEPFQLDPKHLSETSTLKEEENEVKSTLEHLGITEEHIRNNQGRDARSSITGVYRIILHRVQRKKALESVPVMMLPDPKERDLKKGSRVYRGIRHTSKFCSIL

[28] = tested on: Receptor-type tyrosine-protein kinase FLT3 (Homo sapiens), P36888 [N841I]; settings: Compound concentration 1000.0 nM
[29] = molecular target: Serine/threonine-protein kinase 3 (Homo sapiens) (UniProt Q13188); settings: Compound concentration 1000.0 nM
[30] = molecular target: Tyrosine-protein kinase SYK (Homo sapiens) (UniProt P43405); settings: Compound concentration 1000.0 nM
[31] = tested on: Tyrosine-protein kinase ABL1 (Homo sapiens), P00519 [Q252H]; settings: Compound concentration 1000.0 nM
[32] = molecular target: Sodium-dependent dopamine transporter (Homo sapiens, UniProt Q01959); test: DATRANS/H Eurofins-Panlabs selectivity data (BI); settings: Compound concentration 10.0 uM
Chain of Sodium-dependent dopamine transporter (Q01959 whole entry): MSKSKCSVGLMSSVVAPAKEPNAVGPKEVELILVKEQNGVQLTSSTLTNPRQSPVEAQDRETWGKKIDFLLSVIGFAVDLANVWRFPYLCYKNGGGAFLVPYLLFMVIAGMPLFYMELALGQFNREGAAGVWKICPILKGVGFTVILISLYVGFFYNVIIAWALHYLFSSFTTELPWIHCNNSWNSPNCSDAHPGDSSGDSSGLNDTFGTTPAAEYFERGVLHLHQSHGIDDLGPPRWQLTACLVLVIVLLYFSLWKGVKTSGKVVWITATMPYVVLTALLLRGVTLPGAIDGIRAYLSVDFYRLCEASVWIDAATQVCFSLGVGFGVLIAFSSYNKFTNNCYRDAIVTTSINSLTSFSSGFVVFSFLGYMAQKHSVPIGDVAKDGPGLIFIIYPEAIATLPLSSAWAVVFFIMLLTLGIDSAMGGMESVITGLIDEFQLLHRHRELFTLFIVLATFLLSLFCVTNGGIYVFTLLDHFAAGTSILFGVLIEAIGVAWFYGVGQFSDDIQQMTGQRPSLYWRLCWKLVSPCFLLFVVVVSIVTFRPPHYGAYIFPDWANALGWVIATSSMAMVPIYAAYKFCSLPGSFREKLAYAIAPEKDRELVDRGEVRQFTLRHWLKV

[33] = molecular target: Mitogen-activated protein kinase 12 (Homo sapiens) (UniProt P53778); settings: Compound concentration 1000.0 nM
[34] = molecular target: Serine/threonine-protein kinase PLK3 (Homo sapiens) (UniProt Q9H4B4); settings: Compound concentration 1000.0 nM
[35] = molecular target: Activin receptor type-2B (Homo sapiens) (UniProt Q13705); settings: Compound concentration 1000.0 nM
[36] = molecular target: Serine/threonine-protein kinase haspin (Homo sapiens) (UniProt Q8TF76); settings: Compound concentration 1000.0 nM
[37] = molecular target: Misshapen-like kinase 1 (Homo sapiens) (UniProt Q8N4C8); settings: Compound concentration 1000.0 nM
[38] = molecular target: Atypical kinase COQ8A, mitochondrial (Homo sapiens) (UniProt Q8NI60); settings: Compound concentration 1000.0 nM
Chain of Atypical kinase COQ8A, mitochondrial (Homo sapiens) (Q8NI60 163-647 limits assumed): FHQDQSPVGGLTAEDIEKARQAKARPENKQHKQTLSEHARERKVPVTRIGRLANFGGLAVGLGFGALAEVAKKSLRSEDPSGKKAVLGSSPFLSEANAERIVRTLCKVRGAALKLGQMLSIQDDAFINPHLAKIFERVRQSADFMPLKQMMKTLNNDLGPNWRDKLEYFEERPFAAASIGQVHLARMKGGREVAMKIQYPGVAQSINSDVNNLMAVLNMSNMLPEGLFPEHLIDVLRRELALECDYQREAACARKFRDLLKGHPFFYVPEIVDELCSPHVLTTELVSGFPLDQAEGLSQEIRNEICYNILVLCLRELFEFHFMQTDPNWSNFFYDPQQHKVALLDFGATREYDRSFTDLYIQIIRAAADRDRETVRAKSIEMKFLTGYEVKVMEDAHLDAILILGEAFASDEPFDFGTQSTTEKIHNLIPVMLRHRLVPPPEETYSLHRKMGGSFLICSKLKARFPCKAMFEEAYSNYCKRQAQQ

[39] = molecular target: Serine/threonine-protein kinase MRCK alpha (Homo sapiens) (UniProt Q5VT25); settings: Compound concentration 1000.0 nM
[40] = tested on: Proto-oncogene tyrosine-protein kinase receptor Ret (Homo sapiens), P07949 [V804M]; settings: Compound concentration 1000.0 nM
[41] = molecular target: Neutrophil elastase (Homo sapiens) (UniProt P08246); test: ELASTASEPMN Eurofins-Panlabs selectivity data (BI); settings: Compound concentration 10.0 uM
[42] = molecular target: Dual specificity mitogen-activated protein kinase kinase 7 (Homo sapiens) (UniProt O14733); settings: Compound concentration 1000.0 nM
[43] = molecular target: Mitogen-activated protein kinase kinase kinase 15 (Homo sapiens) (UniProt Q6ZN16); settings: Compound concentration 1000.0 nM
[44] = molecular target: Atypical kinase COQ8B, mitochondrial (Homo sapiens) (UniProt Q96D53); settings: Compound concentration 1000.0 nM
[45] = molecular target: Histamine H1 receptor (Homo sapiens) (UniProt P35367); settings: Compound concentration 10.0 uM

## CCOCCn1cc(C(=O)Nc2ccc(-n3nc(-c4cccnc4)cc3C(F)(F)F)cn2)ccc1=O [BI 1935]
[1]
  activity at 10 µM: 95% (not active)
[2]
  residual activity: 92%
[3]
  residual activity: 100%
[4]
  residual activity: 100%
[5]
  inhibition: 25.3%
[6]
  residual activity: 93%
[7]
  residual activity: 86%
[8]
  residual activity: 95%
[9]
  residual activity: 76%
[10]
  residual activity: 91%
[11]
  residual activity: 100%
[12]
  residual activity: 100%
[13]
  residual activity: 91%
[14]
  residual activity: 74%
[15]
  residual activity: 100%
[16]
  residual activity: 93%
[17]
  residual activity: 87%
[18]
  residual activity: 111%
[19]
  residual activity: 100%
[20]
  residual activity: 100%
[21]
  residual activity: 100%
[22]
  residual activity: 100%
[23]
  residual activity: 91%
[24]
  residual activity: 96%
[25]
  residual activity: 91%
[26]
  residual activity: 100%
[27]
  residual activity: 100%
[28]
  residual activity: 92%
[29]
  residual activity: 100%
[30]
  residual activity: 100%
[31]
  residual activity: 83%
[32]
  residual activity: 98%
[33]
  residual activity: 65%
[34]
  residual activity: 84%
[35]
  residual activity: 100%
[36]
  residual activity: 100%
[37]
  residual activity: 89%
[38]
  residual activity: 90%
[39]
  residual activity: 100%
[40]
  residual activity: 100%
[41]
  residual activity: 100%
[42]
  residual activity: 85%
[43]
  residual activity: 100%
[44]
  residual activity: 100%
[45]
  inhibition: 12.2%
